Values joined by “and” are separate entries in the source; they are usually repeats but may differ in a detail not shown here. Equal values may be shown once.
Assays:
Soluble Aβ(1-40) = biological target: T1, Soluble Aβ(1-40) (Homo sapiens, UniProt P05067); test: BASST (Beta-Amyloid Self-Seeding, Thioflavin T): inhibitors of self-seeded amyloid fibril growth; assay type: biochemical; details: 30 μM soluble Aβ(1-40), 37° C., 3 to 5 hours, thioflavin T fluorescence
T1 construct: Soluble Aβ(1-40)—2.2 mg/mL in deionized H2O
T1 sequence (P05067 672-711 limits assumed): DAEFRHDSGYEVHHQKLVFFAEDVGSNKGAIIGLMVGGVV
Method: • 1) Prepare reaction mixture above by mixing components and storing on ice. • 2) Pipet 14.5 μL of reaction mixture into each of 50 wells on a polypropylene U-bottom 96-well microtiter plate on ice (Costar 3794). • 3) Add 1.7 μL of diluted compound to be tested to each well in a column of eight, including solvent control. Serial 3-fold dilutions from 1 mM (100 μM final) in assay buffer-urea=7 dilutions+zero. Each 96-well plate can therefore accommodate 11 samples+1 Congo Red control (0.039-5 μM final in 2-fold steps). • 4) Seal the plate with aluminum film (Beckman 538619) and incubate for 10 minutes on ice. • 5) Raise the temperature to 37° C. and incubate for 3 to 5 hours (depending on the lot of the peptide). • 6) Remove the aluminum film and add 200 μL/well of ice cold assay buffer with urea, collecting the radiolabeled fibrils by vacuum filtration through 0.2-μm pore size GVWP filters in 96-well plates (Millipore MAGV […], Bedford, Mass.). Determine the radioactivity of the filters using standard methods well-known to those skilled in the art. BASST (Beta-Amyloid Self-Seeding, Thioflavin T) An assay for inhibitors of self-seeded amyloid fibril growth Methods: Materials: Stock Solutions: Assay Buffer-50 mM sodium phosphate, pH 7.5, 100 mM NaCl, 0.02% NaN3, 1 M urea (filter and store at 4° C.) Soluble Aβ(1-40)-2.2 mg/mL in deionized H2O (store in aliquots at -20° C., keep on ice when thawed) will self-seed after 1 week storage. Typically, the solution should be stored until no lag phase is seen in the assay. Final assay conditions: 30 μM soluble Aβ(1-40) in deionized water in assay buffer. Compound to be tested is dissolved in DMSO, typically 5 to 50 mM stock, such that the final concentration of DMSO is <1% v/v in the assay. Assay: Reaction mixture for 50 assays (on ice) comprised of 1 μL of soluble Aβ(1-40)+13.5 μL assay buffer per assay. The following are the amounts of the components of the reaction mixture that result in each of the 50 assay wells. 50 μL soluble Aβ(1-40) 675 μL assay buffer Assay Method • 1) Prepare the reaction mix above by mixing the components and storing on ice. • 2) Pipet 14.5 μL of reaction mixture into each of 50 wells of a polystyrene U-bottom 96-well microtiter plate (Coming 25881-96) on ice. • 3) Add 1.7 μL of diluted compound to be tested to each well in a column of eight, including solvent control. Serial 3-fold dilutions from 1 mM (100 μM final) in assay buffer-urea=7 dilutions+zero. Each 96-well plate can therefore accommodate 11 samples+1 Congo Red control (0.039-5 μM final in 2-fold steps). • 4) Seal the plate with aluminum film and incubate for 10 minutes on ice. • 5) Raise the temperature to 37° C. and incubate for 3 to 5 hours (depends on the lot of the peptide). • 6) Remove the aluminum film and add 250 μL/well of 5 μM thioflavin T (ThT) [T-3516, Sigma-Aldrich] in 50 mM glycine-NaOH, pH 8.5. Read fluorescence on a plate reader (ex=440 nm/20 nm; em=485 nm/20 nm) within 5 minutes. BAPA (Beta-Amyloid Peptide Aggregation)

Aβ (1-40) peptide = biological target: T2, Aβ (1-40) peptide (Homo sapiens, UniProt P05067); test: BAPA (Beta-Amyloid Peptide Aggregation, pH 6.0), filtration endpoint; assay type: biochemical; details: Aβ(1-40) 33 μM, pH 6.0, 2 to 4 hours, room temperature
T2 construct: Aβ (1-40) peptide in 20% HFIP
T2 sequence (P05067 672-711 limits assumed): as above
Method: • 1) Prepare the reaction mix above by mixing the components and storing on ice. • 2) Pipet 14.5 μL of reaction mixture into each of 50 wells of a polystyrene U-bottom 96-well microtiter plate (Coming 25881-96) on ice. • 3) Add 1.7 μL of diluted compound to be tested to each well in a column of eight, including solvent control. Serial 3-fold dilutions from 1 mM (100 μM final) in assay buffer-urea=7 dilutions+zero. Each 96-well plate can therefore accommodate 11 samples+1 Congo Red control (0.039-5 μM final in 2-fold steps). • 4) Seal the plate with aluminum film and incubate for 10 minutes on ice. • 5) Raise the temperature to 37° C. and incubate for 3 to 5 hours (depends on the lot of the peptide). • 6) Remove the aluminum film and add 250 μL/well of 5 μM thioflavin T (ThT) [T-3516, Sigma-Aldrich] in 50 mM glycine-NaOH, pH 8.5. Read fluorescence on a plate reader (ex=440 nm/20 nm; em=485 nm/20 nm) within 5 minutes. BAPA (Beta-Amyloid Peptide Aggregation) This assay is used to provide a measure of inhibition by a compound against the aggregation behavior of the β-amyloid peptide. The purpose of this assay is to provide a higher volume method of assaying the amount of β-amyloid aggregation using an endpoint assay based on filtration. In this assay, hexafluoroisopropanol (HFIP) is used to break down the initial amyloid peptide to a monomer state and use a concentration of 33 μM which is high enough so that aggregation will occur at pH 6.0 in several hours. Methods: Beta-Amyloid Peptide Aggregation, pH 6.0 (BAPA) In a 96-well plate (Costar 3794), we add 25 μL 50 mM phosphate buffer, pH 6.0, 10 μL 0.5 mg/mL Aβ (1-40) peptide in 20% HFIP+0.1 μL/assay radioiodinated ^125I Aβ (1-40) [^125I Aβ(1-40)], and 1 μL of the compound to be tested starting at 50 mM with a concentration of DMSO<1%. Then, we incubate for 2 to 4 hours at room temperature. We stop the reaction with 200 μL of 50 mM phosphate buffer, pH 6.0, and filter it through a 0.2 μm 96-well filter plate (Millipore MAGU […]). We wash the filter plate with 100 μL of the same phosphate buffer. Aggregation was detected on a Microbeta counter after impregnating the filters with Meltilex (1450-441) and is corrected for background.

Row | SMILES | IC50 (Soluble Aβ(1-40)) | IC50 (Aβ (1-40) peptide)
1 | CCCCCN(CCCCC)C1Cc2ccc(Nc3ccc([N+](=O)[O-])cc3C(=O)O)cc2C1 (stereo not drawn) [Example 1, 2-[(2-N,N-di-n-pentylamino)-indan-5-yl]amino-5-nitro-benzoic Acid] | 40 µM | 33 µM
2 | CCCCCN(CCCCC)C1Cc2ccc(Nc3ccc(C)cc3C(=O)O)cc2C1 (stereo not drawn) [Example 6, 2-(2-Dipentylamino-indan-5-yl-amino)-5-methyl-benzoic acid] | 21 µM and > 100 µM | 118 µM
3 | COc1ccc(Nc2ccc3c(c2)CC(NCc2ccc(Cl)c(Cl)c2)C3)c(C(=O)O)c1 (stereo not drawn) [Example 5, 2-[2-(3,4-Dichlorobenzylamino)-indan-5-ylamino]-5-methoxy-benzoic acid] | 30 µM | 165 µM
4 | CCCCCN(CCCCC)C1Cc2ccc(Nc3ccc(C(=O)O)cc3[N+](=O)[O-])cc2C1 (stereo not drawn) [Example 7, 4-(2-Dipentylamino-indan-5-yl-amino)-3-nitro-benzoic Acid] | 8 µM | 118 µM

Next, values leading:

Row | IC50 (Soluble Aβ(1-40)) | IC50 (Aβ (1-40) peptide) | SMILES
5 | 30 µM | > 100 µM | O=C(O)c1cc([N+](=O)[O-])ccc1Nc1ccc2c(c1)CC(NCc1ccc(F)cc1)C2 (stereo not drawn) [Example 10, 2-[2-(4-Fluorobenzylamino)-indan-5-ylamino]-5-nitro-benzoic acid]
6 | > 100 µM | 5 µM | CCCCCNC1Cc2ccc(Nc3ccc([N+](=O)[O-])cc3C(=O)O)cc2C1 (stereo not drawn) [Example 12, 2-[2-(n-Pentylamino)-indan-5-ylamino]-5-nitro-benzoic acid]
